What was measured:
melanoma cell lines = assay: MHC induction by IFN-γ with PI3K/mTOR inhibitor in melanoma cell lines, flow cytometry; settings: BEZ235 0.5 μM, MHC class I and class II, melanoma cell lines of FIG. 4
Experimental: Fold induction of cell surface MHC class I was calculated by dividing averaged MFI values for cells treated as indicated along the x-axis by averaged MFI values of cells treated with vehicle (DMSO) alone. […] MHC class I and class II levels were assessed as in part A.
BEZ235 a dual PI3K/mammalian target of rapamycin inhibitor was used.

AKT (serine 473) = assay: AKT phosphorylation in the melanoma cell model system; format: cell-based; settings: BEZ235
SKMEL-3 cells = assay: Cell surface MHC by flow cytometry in SKMEL-3 cells after IFN-γ; settings: SKMEL3 cells (heterozygous for BRAFV600E), vemurafenib 0.5 μM, 72 hours
Experimental: (§1) Cell surface MHC class I (HLA-A, B and C, top panels) and MHC class II (HLA-DR, lower panels) levels were measured 72 hours later using flow cytometry. […] Fold induction of cell surface MHC class I was calculated by dividing averaged MFI values for cells treated as indicated along the x-axis by averaged MFI values of cells treated with vehicle (DMSO) alone. Fold inductions for heterozygous cell lines (MALME-3M, SKMEL-3, and SKMEL-5) were averaged together (gray bars) as were the fold inductions for three homozygous (white bars) cell lines (A375, HT-144, and SKMEL-28). […] The DMSO-treated cells (gray diamonds) from part A are compared to those treated with BEZ235 (0.5 μM, black squares). MHC class I and class II levels were assessed as in part A.

SKMEL-5 cells = assay: Cell surface MHC by flow cytometry in SKMEL-5 cells after IFN-γ; settings: SKMEL5 cells (heterozygous for BRAFV600E), vemurafenib 0.5 μM, 72 hours
Experimental: as §1

MALME-3M cells = assay: Cell surface MHC by flow cytometry in MALME-3M cells after IFN-γ; settings: MALME-3M cells (heterozygous for BRAFV600E), vemurafenib 0.5 μM, 72 hours
Experimental: as §1

CIITA mRNA = settings: SKMEL-28 cells, vemurafenib 0.5 μM, IFN-γ 20 U/ml
Experimental: as §1

A375 melanoma cells = assay: Cell surface MHC class I, B2M and MHC class II by flow cytometry in A375 cells after interferon
Experimental: A representative western blot is shown. A375 cells were pre-treated with vehicle (DMSO) or 10 μM of PLX4720 60 minutes prior to the addition of IFN-γ (100 U/ml). Whole cell lysates were prepared 24 hours later and levels of phospho-ERK (Thr 202/Tyr 204) and total ERK protein were analyzed by western blot. B, A representative flow cytometry histogram is shown. A375 cells were pre-treated with vehicle (DMSO, black line, unfilled) or 10 μM PLX4720 (black dotted line) for 60 minutes prior to the addition of IFN-γ (10 U/ml). Control cells were left untreated (gray filled). Cell surface MHC class I was analyzed using flow cytometry 72 hours later using an antibody that recognizes a shared epitope on HLA-A, B and C molecules. Cells stained with an isotype control antibody are shown (black filled). C, Averaged mean fluorescence intensity (MFI) from three independent flow cytometry experiments is shown (y-axis) and treatments are indicated along the x-axis. The error bars represent the SEM. (*, p<0.05; two-tailed paired Student's t test, as compared to cells treated with IFN-γ and pre-treated with DMSO).
A representative western blot is shown. […] Cell lysates were prepared 72 hours later and levels of total ERK and phospho-ERK (Thr 202/Tyr 204) protein analyzed by western blot. […] Cell surface MHC class I (HLA-A, B, C), B2M, and MHC class II (HLA-DR) levels were analyzed 72 hours later using flow cytometry. Values represent the average mean fluorescence intensity (MFI) for three independent experiments and error bars represent the SEM. […] GAPDH levels are shown as a loading control. D, Induction of HLA-A, HLA-DR, CIITA and NLRC5 mRNA in A375 cells. […] Control cells were treated only with vehicle (DMSO). Steady state mRNA levels were measured using quantitative real-time RT-PCR 72 hours later and are expressed as fold over vehicle (DMSO) treated cells. Error bars represent SEM from at least 3 independent experiments. (*, p<0.05, **, p<0.01, 2-tailed paired Student's t test, as compared to cells treated with IFN-γ and pre-treated with DMSO)
Error bars represent the SEM. […] Flow cytometry was used to select transfected (GFP positive) and non-transfected (GFP negative) cells and MHC class I levels were measured on these two cell populations. Average values from three independent experiments are shown. MHC class I levels are expressed as the % of MHC class I on control cells (cells non-transfected using the empty vector plasmid). […] Cells stained with an isotype control antibody are shown in black filled.

[1] = test system: phospho-ERK (Thr 202/Tyr 204); assay: ERK phosphorylation by western blot in A375 cells; format: cell-based; settings: 10 μM PLX4720, western blot, 24 hours
Experimental: A representative western blot is shown. A375 cells were pre-treated with vehicle (DMSO) or 10 μM of PLX4720 60 minutes prior to the addition of IFN-γ (100 U/ml). Whole cell lysates were prepared 24 hours later and levels of phospho-ERK (Thr 202/Tyr 204) and total ERK protein were analyzed by western blot. […] The error bars represent the SEM.
A representative western blot is shown. […] Cell lysates were prepared 72 hours later and levels of total ERK and phospho-ERK (Thr 202/Tyr 204) protein analyzed by western blot. […] GAPDH levels are shown as a loading control. […] Control cells were treated only with vehicle (DMSO).

[2] = test system: BRAFV600E homozygous cell lines (A375, HT-144, and SKMEL-28); assay: Fold MHC class I induction averaged over BRAFV600E homozygous cell lines; settings: MFI over vehicle (DMSO) alone
Experimental: The y-axis represents average MFI for at least three independent experiments except those for MeWo and SKMEL-5 which are the average of two independent experiments. […] Fold induction of cell surface MHC class I was calculated by dividing averaged MFI values for cells treated as indicated along the x-axis by averaged MFI values of cells treated with vehicle (DMSO) alone. […] MHC class I and class II levels were assessed as in part A.

[3] = test system: SKMEL-2 (BRAF codon 600 wild-type) cells; assay: Cell surface MHC by flow cytometry in SKMEL-2 cells after IFN-γ
Experimental: Values represent the average mean fluorescence intensity (MFI) for three independent experiments and error bars represent the SEM. […] Control cells were treated only with vehicle (DMSO). […] Error bars represent SEM from at least 3 independent experiments.

[4] = test system: BRAFV600E heterozygous cell lines (MALME-3M, SKMEL-3, and SKMEL-5); assay: Fold MHC class I induction averaged over BRAFV600E heterozygous cell lines; settings: MFI over vehicle (DMSO) alone
Experimental: as §1

[5] = A375 cells, sorafenib 10 μM prior to IFN-γ 2000 U/ml, not statistically significant (ANOVA)

Cn1c(=O)n(-c2ccc(C(C)(C)C#N)cc2)c2c3cc(-c4cnc5ccccc5c4)ccc3ncc21 [BEZ235]
induction of MHC molecules by IFN-γ (melanoma cell lines): did not enhance the induction of MHC molecules by IFN-γ, rather, it attenuated MHC induction in some of the cell lines examined
phosphorylation of AKT (serine 473) (AKT (serine 473)): reduced the phosphorylation of AKT (serine 473)

CCCS(=O)(=O)Nc1ccc(F)c(C(=O)c2c[nH]c3ncc(-c4ccc(Cl)cc4)cc23)c1F [vemurafenib]
induction of MHCI molecules by IFN-γ (SKMEL-3 cells): no effect
induction of MHCII molecules by IFN-γ (SKMEL-3 cells): no effect
induction of MHCI molecules by IFN-γ (SKMEL-5 cells): no effect
induction of MHCII molecules by IFN-γ (SKMEL-5 cells): no effect
induction of MHCI molecules by IFN-γ (MALME-3M cells): no effect
induction of MHCII molecules by IFN-γ (MALME-3M cells): no effect
time after the addition of IFN-γ at which the effect on CIITA mRNA was most pronounced (CIITA mRNA): 48 h

CNC(=O)c1cc(Oc2ccc(NC(=O)Nc3ccc(Cl)c(C(F)(F)F)c3)cc2)ccn1 [sorafenib]
induction of MHCI molecules by IFN-γ (A375 melanoma cells; [5]): enhanced the induction of MHCI molecules
induction of the MHCII molecule HLA-DR by IFN-γ (A375 melanoma cells; [5]): decreased the induction of the MHCII molecule HLA-DR

CCCS(=O)(=O)Nc1ccc(F)c(C(=O)c2c[nH]c3ncc(Cl)cc23)c1F [PLX4720]
induction of MHCI molecules by IFN-γ (A375 melanoma cells; A375 cells, 10 μM PLX4720 60 minutes prior to IFN-γ (10 U/ml), 72 hours): enhanced the induction of MHCI molecules by IFN-γ
levels of ERK phosphorylation [1]: reduced levels of ERK phosphorylation

B1: IFN-γ: a type II interferon, cytokine, potent inducer of MHC expression (protein, UniProt P01579 24-161, looked up)
Interferon gamma: QDPYVKEAENLKKYFNAGHSDVADNGTLFLGILKNWKEESDRKIMQSQIVSFYFKLFKNFKDDQSIQKSVETIKEDMNVKFFNSNKKKRDDFEKLTNYSVTDLNVQRKAIHELIQVMAELSPAAKTGKRKRSQMLFRG
MHCI cell surface expression (A375 melanoma cells; A375 cells treated with IFN-γ alone, flow cytometry): lead to an induction of MHCI cell surface expression
fold increase of MHCI levels by IFN-γ [2]: around four
cell surface MHCI, MHCII and B2M protein levels [3]: increases in cell surface MHCI, MHCII and B2M protein levels
fold increase of MHCI levels by IFN-γ [4]: around four
